Experiment [1] has as its system adenosine uptake into HeLa cells. The experiment can be described thus: [3H]Adenosine uptake assay in HeLa cells. The conditions noted are these: 60 minutes uptake, read-out: ADU inhibition IC50 (adenosine uptake inhibition potency). It counts as cell-based. On the procedure: Compounds were also screened in an adenosine uptake functional cellular assay using the protocol described below.
Adenosine uptake activity was determined by monitoring the accumulation of tritiated adenosine into HeLa cells (ATCC catalog # CCL-2) using a PMT-based radiometric detection instrument. In this assay, the potency (IC50) of each compound was determined from a ten point (1:3 serial dilution; final compound concentration range in assay from 10 μM to 0.032 nM) titration curve using the following outlined procedure. To each well of a 96-well CytoStar-T scintillating microplate (Perkin Elmer Catalog # RPNQ0163), 25 000 HeLa cells in 100 μL of growth medium comprising: Minimum Essential Media (Life Technologies Catalog # 11095-080)+10% (v/v) foetal bovine serum (FBS; Sigma Aldrich Catalog # F2442) was added. These cells were incubated overnight at 37° C. in a humidified atmosphere with 5% (v/v) CO2. After this time the growth medium was removed and replaced with 40 μL assay medium comprising: Hanks balanced salts solution (HBSS; Thermo Fisher Catalog # SH30268.01)+5% (v/v) FBS. Compound stock solutions in DMSO were diluted in assay medium to 2.5× final compound concentration maintaining a constant DMSO concentration of 0.25% (v/v). 40 μL of compound in assay medium was dispensed into individual wells of the Cytostar-T plates and the plates were incubated for 30 minutes under ambient laboratory conditions. Following this incubation, 20 μL of 500 nM [^3H]adenosine (American Radiolabeled Chemicals Inc. Catalog # ART0287) in assay medium was added and incubated for a further 60 minutes under ambient laboratory conditions. The amount of radiolabel accumulation was then determined using a Perkin Elmer Topcount NXT microplate reader. In brief, HeLa cells adhere to the bottom of the Cytostar-T plate, uptake of [^3H]adenosine into these cells brings the radiolabel into sufficient proximity to excite the scintillant in the base of the plates. These events are captured by single PMT, time-resolved coincidence counting. IC50 values were determined by 4 parameter robust fit of counts per second values vs. (Log10) compound concentrations.

The target of experiment [2] is T1, BTK enzyme (full-length BTK, hBTK) (Homo sapiens, UniProt Q06187).
T1 construct: recombinant protein from baculovirus-transfected Sf9 cells: full-length BTK, 6HIS-tag cleaved; 6HIS (cleaved yes); made in house; host or cells: baculovirus-transfected Sf9 cells
Kind of experiment: Btk enzyme activity assay (LANCE TR-FRET). It counts as biochemical. The settings on record: 50 pM hBTK, 25 μM ATP, 60 minute compound and enzyme incubation, read-out: BTK binding IC50. On the procedure: BTK enzymatic activity was determined with the LANCE (Lanthanide Chelate Excite) TR-FRET (Time-resolved fluorescence resonance energy transfer) assay. […] To each well of a black non-binding surface Corning 384-well microplate (Corning Catalog #3820), 5 nL of compound (2000 fold dilution in final assay volume of 10 μL) was dispensed, followed by the addition of 7.5 μL of 1× kinase buffer (50 mM Hepes 7.5, 10 mM MgCl2, 0.01% Brij-35, 1 mM EGTA, 0.05% BSA & 1 mM DTT) containing 5.09 pg/μL (66.67 pM) of BTK enzyme (recombinant protein from baculovirus-transfected Sf9 cells: full-length BTK, 6HIS-tag cleaved). Following a 60 minute compound and enzyme incubation, each reaction was initiated by the addition of 2.5 μL 1× kinase buffer containing 8 μM biotinylated “A5” peptide (Biotin-[…]-NH2) (SEQ.ID.NO.: 1), and 100 μM ATP. The final reaction in each well of 10 μL consists of 50 pM hBTK, 2 μM biotin-A5-peptide, and 25 μM ATP. Phosphorylation reactions were allowed to proceed for 120 minutes. Reactions were immediately quenched by the addition of 20 uL of 1× quench buffer (15 mM EDTA, 25 mM Hepes 7.3, and 0.1% Triton X-100) containing detection reagents (0.626 nM of LANCE-Eu-W1024-anti-phosphoTyrosine antibody, PerkinElmer and 86.8 nM of Streptavidin-conjugated Dylight 650, Dyomics/ThermoFisher Scientific). After 60 minutes incubation with detection reagents, reaction plates were read on a PerkinElmer EnVision plate reader using standard TR-FRET protocol. Briefly, excitation of donor molecules (Eu-chelate:anti-phospho-antibody) with a laser light source at 337 nm produces energy that can be transferred to Dylight-650 acceptor molecules if this donor:acceptor pair is within close proximity. Fluorescence intensity at both 665 nm (acceptor) and 615 nm (donor) are measured and a TR-FRET ratio calculated for each well (acceptor intensity/donor intensity). IC50 values were determined by 4 parameter robust fit of TR-FRET ratio values vs. (Log10) compound concentrations.
The following Table 2 provides specific IC50 values for all the examples. The IC50 values set forth below were determined according to Assay method described above.
In general terms: TR-FRET usually uses a lanthanide donor and a delayed reading to cut background.

pIC50: −log10 of the molar value. Where two headings read alike, the source gives them in different places.

Consider 14 compounds from patent publication US10130630B2, “BTK inhibitors” (MERCK SHARP & DOHME CORP., priority 2014, dated 2018).

T1 sequence (Q06187 whole entry): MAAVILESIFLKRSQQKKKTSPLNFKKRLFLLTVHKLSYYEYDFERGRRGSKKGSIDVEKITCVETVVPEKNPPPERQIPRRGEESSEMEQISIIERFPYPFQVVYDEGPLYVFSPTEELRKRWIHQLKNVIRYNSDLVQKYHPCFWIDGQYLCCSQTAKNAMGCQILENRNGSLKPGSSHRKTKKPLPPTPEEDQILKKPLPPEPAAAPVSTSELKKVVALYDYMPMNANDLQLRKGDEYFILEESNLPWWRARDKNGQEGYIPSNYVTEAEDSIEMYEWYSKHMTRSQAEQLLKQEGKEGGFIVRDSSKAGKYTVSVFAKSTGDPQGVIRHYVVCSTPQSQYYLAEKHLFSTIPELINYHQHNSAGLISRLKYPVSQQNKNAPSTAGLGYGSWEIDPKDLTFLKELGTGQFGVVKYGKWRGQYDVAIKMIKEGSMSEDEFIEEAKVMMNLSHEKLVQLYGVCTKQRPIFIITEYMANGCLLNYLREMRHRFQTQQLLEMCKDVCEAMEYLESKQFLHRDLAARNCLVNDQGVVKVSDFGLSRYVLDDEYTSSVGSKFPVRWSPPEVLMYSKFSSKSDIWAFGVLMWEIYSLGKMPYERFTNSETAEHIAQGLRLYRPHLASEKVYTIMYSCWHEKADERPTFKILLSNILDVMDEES

On to `CCOc1cc(C(=O)Nc2cc(C(F)(F)F)n(C)n2)c(F)cc1-c1nc([C@@H]2CC[C@@H]3N(C2)C(=O)C2(CC2)C3(F)F)n2ccnc(N)c12` [Compound 33, 4-{8-amino-3-[(6′R,8a′S)-1′,1′-difluoro-3′-oxohexahydrospiro[cyclopropane-1,2′-indolizin]-6′-yl]imidazo[1,5-a]pyrazin-1-yl}-5-ethoxy-2-fluoro-N-[1-methyl-5-(trifluoromethyl)-1H-pyrazol-3-yl]benzamide], for which the pIC50 (in general, the IC50 on a negative log10 scale, so that one unit is a factor of ten) in experiment [1] (Homo sapiens, HeLa) is 5.84; in experiment [2], 8.04.
For `CCOc1cc(C(=O)Nc2cc(C(F)(F)F)n(C)n2)c(Cl)cc1-c1nc([C@@H]2CC[C@@H]3N(C2)C(=O)C2(CC2)C3(F)F)n2ccnc(N)c12` [Compound 34, 4-{8-amino-3-[(6′R,8a′S)-1′,1′-difluoro-3′-oxohexahydrospiro[cyclopropane-1,2′-indolizin]-6′-yl]imidazo[1,5-a]pyrazin-1-yl}-2-chloro-5-ethoxy-N-[1-methyl-5-(trifluoromethyl)-1H-pyrazol-3-yl]benzamide], in that order: 5.80 and 8.16.
With `CCOc1cc(C(=O)Nc2cc(C(F)(F)F)ccn2)ccc1-c1nc([C@H]2CN3C(=O)[C@H]4CCCN4C[C@@H]3CO2)n2ccnc(N)c12` [Compound 35, 4-{8-amino-3-[(3R,6aR,11aR)-6-oxooctahydro-1H,6H-pyrrolo [1′,2′:4,5]pyrazino[2,1-c][1,4]oxazin-3-yl]imidazo[1,5-a]pyrazin-1-yl}-3-ethoxy-N-[4-(trifluoromethyl)pyridin-2-yl] benzamide], the pIC50 in experiment [1] (Homo sapiens, HeLa) is 5.87; in experiment [2] it was 8.90.
For `CCOc1cc(C(=O)Nc2cc(C(F)(F)F)ccn2)ccc1-c1nc([C@H]2CN3C(=O)[C@@H]4CCCN4C[C@@H]3CO2)n2ccnc(N)c12` [Compound 36, 4-{8-amino-3-[(3R,6aS,11aR)-6-oxooctahydro-1H,6H-pyrrolo[1′,2′:4,5]pyrazino[2,1-c][1,4]oxazin-3-yl]imidazo[1,5-a]pyrazin-1-yl}-3-ethoxy-N-[4-(trifluoromethyl)pyridin-2-yl]benzamide], in that order: 5.90 and 9.00.
As to `CCOc1cc(C(=O)Nc2cc(C#N)ccn2)cc(F)c1-c1nc(C2CCC3N(C2)C(=O)CC32CC2)n2c(Cl)cnc(N)c12` (stereo not shown) [Compound 37, 4-[8-amino-5-chloro-3-(3′-oxohexahydro-5′H-spiro[cyclopropane-1,1′-indolizin]-6′-yl)imidazo[1,5-a]pyrazin-1-yl]-N-(4-cyanopyridin-2-yl)-3-ethoxy-5-fluorobenzamide], the pIC50 was 6.43 in experiment [1] (Homo sapiens, HeLa) and 9.73 in experiment [2].
For `CCOc1cc(C(=O)Nc2cc(C#N)ccn2)cc(F)c1-c1nc(C2CCC3N(C2)C(=O)CC32CC2)n2ccnc(N)c12` (stereo not shown) [Compound 38, 4-[8-amino-3-(3′-oxohexahydro-5′H-spiro[cyclopropane-1,1′-indolizin]-6′-yl)imidazo[1,5-a]pyrazin-1-yl]-N-(4-cyanopyridin-2-yl)-3-ethoxy-5-fluorobenzamide], in that order: 6.12 and 9.65.
Turning to `CCOc1cc(C(=O)Nc2cc(C(F)(F)F)ccn2)ccc1-c1nc(C2CCC3N(C2)C(=O)CNC32CC2)n2ccnc(N)c12` (stereo not shown) [Compound 39, 4-[8-amino-3-(4′-oxohexahydro-2′H,6′H-spiro[cyclopropane-1,1′-pyrido[1,2-a]pyrazin]-7′-yl)imidazol[1,5-a]pyrazin-1-yl]-3-ethoxy-N-[4-(trifluoromethyl)pyridin-2-yl]benzamide], the pIC50 in experiment [1] (Homo sapiens, HeLa) is 5.87; in experiment [2] it was 9.49.
Consider `Nc1nccn2c([C@@H]3CC[C@H]4CNC5(CC5)C(=O)N4C3)nc(-c3ccc(C(=O)Nc4cc(C(F)(F)F)ccn4)cc3)c12` [Compound 40, 4-{8-amino-3-[(7′R,9a′S)-4′-oxohexahydro-2′H-spiro[cyclopropane-1,3′-pyrido[1,2-a]pyrazin]-7′-yl]imidazo[1,5-a]pyrazin-1-yl}-N-[4-(trifluoromethyl)pyridin-2-yl]benzamide], for which the pIC50 was 6.77 in experiment [1] (Homo sapiens, HeLa) and 9.76 in experiment [2].
For `COc1cc(C(=O)Nc2cc(C(F)(F)F)ccn2)ccc1-c1nc([C@@H]2CC[C@H]3CNC4(CC4)C(=O)N3C2)n2ccnc(N)c12` [Compound 41, 4-{8-amino-3-[(7′R,9a′S)-4′-oxohexahydro-2′H-spiro[cyclopropane-1,3′-pyrido[1,2-a]pyrazin]-7′-yl]imidazo[1,5-a]pyrazin-1-yl}-3-methoxy-N-[4-(trifluoromethyl)pyridin-2-yl]benzamide], in that order: 5.87 and 9.60.
As for `CCOc1cc(C(=O)Nc2cc(C(F)(F)F)ccn2)ccc1-c1nc(C2CCC3N(C2)C(=O)CNC32CC2)n2ccnc(N)c12` (stereo not shown) [Compound 42, 4-[8-amino-3-(4′-oxohexahydro-2′H,6′H-spiro[cyclopropane-1,1′-pyrido[1,2-a]pyrazin]-7′-yl)imidazo[1,5-a]pyrazin-1-yl]-3-ethoxy-N-[4-(trifluoromethyl)pyridin-2-yl]benzamide], the pIC50 is 5.65 in experiment [1] and 9.64 in experiment [2].
In the case of `CCOc1cc(C(=O)Nc2cc(C(F)(F)F)ccn2)ccc1-c1nc(C2CCC3N(C2)C(=O)CNC32CC2)n2ccnc(N)c12` (stereo not shown) [Compound 43, 4-[8-amino-3-(4′-oxohexahydro-2′H,6′H-spiro[cyclopropane-1,1′-pyrido[1,2-a]pyrazin]-7′-yl)imidazo[1,5-a]pyrazin-1-yl]-3-ethoxy-N-[4-(trifluoromethyl)pyridin-2-yl]benzamide], the pIC50 is 5.92 in experiment [1] and 8.25 in experiment [2].
As for `CCOc1cc(C(=O)Nc2cc(C(F)(F)F)ccn2)ccc1-c1nc([C@@H]2CC[C@H]3CN(CC)C4(CC4)C(=O)N3C2)n2ccnc(N)c12` [Compound 44, 4-{8-amino-3-[(7′R,9a′S)-2′-ethyl-4′-oxohexahydro-2′H-spiro[cyclopropane-1,3′-pyrido[1,2-a]pyrazin]-7′-yl]imidazo[1,5-a]pyrazin-1-yl}-3-ethoxy-N-[4-(trifluoromethyl)pyridin-2-yl]benzamide], the pIC50 in experiment [1] (Homo sapiens, HeLa) is 6.11; in experiment [2] it was 9.60.
In the same order, the values of `CCOc1cc(C(=O)Nc2cc(C(F)(F)F)ccn2)ccc1-c1nc([C@H]2CN3C(=O)C4(CC4)NC[C@@H]3CO2)n2ccnc(N)c12` [Compound 45, 4-{8-amino-3-[(3′R,9a′R)-6′-oxohexahydrospiro[cyclopropane-1,7′-pyrazino[2,1-c][1,4]oxazin]-3′-yl]imidazo[1,5-a]pyrazin-1-yl}-3-ethoxy-N-[4-(trifluoromethyl)pyridin-2-yl]benzamide] are 5.80 and 9.62.
For `COc1cc(C(=O)Nc2cc(C(F)(F)F)ccn2)ccc1-c1nc([C@H]2CC[C@@H]3CC4(CC4)C(=O)N3C2)n2ccnc(N)c12` [Compound 47, 4-{8-amino-3-[(6′S,8a′R)-3′-oxohexahydrospiro[cyclopropane-1,2′-indolizin]-6′-yl]imidazo[1,5-a]pyrazin-1-yl}-3-methoxy-N-[4-(trifluoromethyl)pyridin-2-yl]benzamide], in that order: 6.28 and 9.28.
